# Measured values as given in patent EP4745138A1, “THIO-GLUTARIMIDO ISOINDOLINONE DERIVATIVE, BIFUNCTIONAL PROTEIN DEGRADER CONTAINING SAME, AND USES THEREOF” (Gluetacs Therapeutics (Shanghai) Co., Ltd., priority 2023, dated 2025).
# Read-outs that look alike come from different tables or passages of the source.
# How the values were obtained:
# CDK6 = molecular target: T1, CDK6 (Homo sapiens, UniProt Q00534); experiment: Western blot, target protein degradation in MDA-MB-231 Cell; type: cell-based; conditions: substrate protein remaining %, treated at 500 nM and 50 nM, 24 hours
# T1 construct: endogenous in cells; host or cells: MDA-MB-231
# T1 sequence (Q00534 whole entry): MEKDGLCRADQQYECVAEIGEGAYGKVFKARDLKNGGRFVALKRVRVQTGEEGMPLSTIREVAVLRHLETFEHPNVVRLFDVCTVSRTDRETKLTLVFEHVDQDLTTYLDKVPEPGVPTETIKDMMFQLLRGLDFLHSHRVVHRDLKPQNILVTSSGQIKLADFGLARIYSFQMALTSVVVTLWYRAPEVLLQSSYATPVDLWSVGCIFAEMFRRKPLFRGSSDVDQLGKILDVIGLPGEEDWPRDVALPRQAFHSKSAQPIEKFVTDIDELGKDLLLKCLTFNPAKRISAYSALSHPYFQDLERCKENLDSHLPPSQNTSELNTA
# Method: (§1) Conventional Western blot assay was performed to evaluate the effects of the compounds of the present disclosure on the expression of target proteins in cells.
# (§2) (1) Cell Seeding and Protein Harvesting: The selected cells were processed according to the cell seeding procedure and protein harvesting procedure in Table II-2. Table II-2 Cell Seeding and Protein Harvesting Procedures
# (§3) (2) To the collected supernatant, 5X SDS sample loading buffer was added, followed by denaturation at 95°C for 5 minutes. The denatured samples were then separated by SDS-PAGE electrophoresis on a polyacrylamide gel. Proteins were transferred to a nitrocellulose membrane (0.45 µm NC membrane), blocked with blocking buffer at room temperature for 1 hour, and subjected to antibody incubation and development procedures according to the antibody manufacturer's instructions (Cell Signaling Technology).
# (§4) Half-Maximal Degradation Concentration value (the drug concentration required for degrading proteins by 50%, abbreviated as DC50) reads method: comparing the grayscale values of Western blot bands from drug-treated samples with those from blank DMSO-treated controls, and identifying the drug concentration range at which the grayscale value is half that of the DMSO-treated control bands.
# (§5) DC50 values can be calculated using ImageJ software to measure grayscale values of Western blot bands from drug-treated samples. The concentration-response curve is fitted to estimate the drug concentration corresponding to half the grayscale value.
# (§6) Target protein remaining (%) refers to the percentage of target protein remaining in cells after treatment with protein degrader compounds.
# (§7) Calculation method for target protein remaining (%): Use ImageJ software to measure grayscale values of Western blot bands from drug (protein degrader)-treated samples. The grayscale value of drug-treated bands is divided by that of internal control protein bands, and the resulting quotient is normalized to obtain the relative percentage of remaining target protein after protein degrader treatment. Target protein degradation rate(%) = 1−target protein remaining(%). [formula]
# CDK4 = molecular target: T2, CDK4 (Homo sapiens, UniProt P11802); experiment: as above; type: cell-based; conditions: substrate protein remaining %, treated at 500 nM and 50 nM, 24 hours
# T2 construct: endogenous in cells; host or cells: MDA-MB-231
# T2 sequence (P11802 whole entry): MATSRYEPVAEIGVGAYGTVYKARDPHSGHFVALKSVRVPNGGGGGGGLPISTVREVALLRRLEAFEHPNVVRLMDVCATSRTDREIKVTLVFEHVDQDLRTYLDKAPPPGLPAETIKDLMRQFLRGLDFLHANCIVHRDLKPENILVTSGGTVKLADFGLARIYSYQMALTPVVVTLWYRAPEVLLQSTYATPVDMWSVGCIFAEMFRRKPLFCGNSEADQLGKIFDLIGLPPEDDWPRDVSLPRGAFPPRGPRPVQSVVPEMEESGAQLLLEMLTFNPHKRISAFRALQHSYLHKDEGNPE
# Method: as §1, §2, §3, §4, §5, §6, §7
# MM.1S = experiment: Tumor cell proliferation inhibition (CellTiter-Meiluncell Luminescent Cell Viability Assay); type: cell-based; conditions: MM.1S, 96 hours; for inhibition at 0.01 µM / inhibition at 0.5 µM: Homo sapiens, MM1.S; for inhibition at 0.01 µM: read-out: Inhibition Rate at 10 nM (%); for inhibition at 0.5 µM: 500 nM, read-out: Inhibition Rate at 500 nM (%)
# Summary of the method: (§8)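 Following overnight seeding, tumor cells received serial compound dilutions to final levels that included 10 nM and 500 nM. Viability was assessed by luminescence at the end of the specified exposure time. Cultures were kept at 37°C with 5% CO2.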
# [1] = molecular target: T3, human Cereblon WT GST-tagged protein (Homo sapiens, UniProt Q96SW2); experiment: CRBN-binding affinity, HTRF (CEREBLON BINDING kit); conditions: for inhibition at 0.5 µM: read-out: Inhibition Rate at 0.5 µM (%); for inhibition at 2 µM: read-out: Inhibition Rate at 2 µM (%); for IC50: CRBN binding, HTRF
# T3 construct: purchased CISBIO 64BDCRBNPEH
# Summary of the method: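 cpd (final 2 µM, 0.5 µM; diluent #9 1X) + GST-CRBN WT + thalidomide-Red/anti-GST Eu mix; HTRF readout. Blanks: diluent + PROTAC binding buffer + detection mix.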
# WEE1 = experiment: Western blot, substrate protein degradation in hPBMC Cell; type: cell-based, Human; conditions: substrate protein remaining %, treated at 50 nM and 500 nM, 24 hours
# Method: as §1, §2, §3, §4, §5, §6, §7
# IKZF2 = molecular target: T4, IKZF2 (Homo sapiens, UniProt Q96SW2+Q9UKS7); experiment: as above; type: cell-based; conditions: substrate protein remaining %, treated at 50 nM and 500 nM, 24 hours
# T4 construct: endogenous in cells; host or cells: hPBMC
# T4 sequence (Q9UKS7 whole entry): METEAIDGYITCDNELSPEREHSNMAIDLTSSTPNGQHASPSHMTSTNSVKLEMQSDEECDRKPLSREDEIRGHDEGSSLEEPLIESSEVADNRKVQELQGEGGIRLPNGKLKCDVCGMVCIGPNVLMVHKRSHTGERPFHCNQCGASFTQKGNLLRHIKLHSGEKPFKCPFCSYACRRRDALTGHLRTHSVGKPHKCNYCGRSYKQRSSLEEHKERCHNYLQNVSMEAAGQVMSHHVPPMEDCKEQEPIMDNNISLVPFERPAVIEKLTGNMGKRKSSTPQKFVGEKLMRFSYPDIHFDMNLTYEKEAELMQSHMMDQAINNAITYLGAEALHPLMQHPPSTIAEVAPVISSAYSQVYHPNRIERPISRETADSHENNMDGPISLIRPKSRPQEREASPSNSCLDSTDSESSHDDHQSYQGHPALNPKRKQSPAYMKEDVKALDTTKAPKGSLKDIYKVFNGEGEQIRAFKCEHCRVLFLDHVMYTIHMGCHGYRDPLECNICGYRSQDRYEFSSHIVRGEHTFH
# T4 sequence (Q96SW2 whole entry): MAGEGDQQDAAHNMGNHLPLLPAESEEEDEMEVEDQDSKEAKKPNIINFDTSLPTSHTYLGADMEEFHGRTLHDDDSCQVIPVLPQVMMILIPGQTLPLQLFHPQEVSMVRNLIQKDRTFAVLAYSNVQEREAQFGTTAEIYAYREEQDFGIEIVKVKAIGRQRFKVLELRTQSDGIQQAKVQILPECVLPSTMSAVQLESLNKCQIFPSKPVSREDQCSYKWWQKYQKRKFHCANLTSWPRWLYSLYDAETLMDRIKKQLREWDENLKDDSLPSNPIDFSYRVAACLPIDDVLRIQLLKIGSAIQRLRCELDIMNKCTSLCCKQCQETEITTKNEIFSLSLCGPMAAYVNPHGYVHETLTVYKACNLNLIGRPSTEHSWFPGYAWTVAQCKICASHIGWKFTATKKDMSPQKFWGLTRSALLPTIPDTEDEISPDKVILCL
# T4 sequence (Q16531 whole entry partner): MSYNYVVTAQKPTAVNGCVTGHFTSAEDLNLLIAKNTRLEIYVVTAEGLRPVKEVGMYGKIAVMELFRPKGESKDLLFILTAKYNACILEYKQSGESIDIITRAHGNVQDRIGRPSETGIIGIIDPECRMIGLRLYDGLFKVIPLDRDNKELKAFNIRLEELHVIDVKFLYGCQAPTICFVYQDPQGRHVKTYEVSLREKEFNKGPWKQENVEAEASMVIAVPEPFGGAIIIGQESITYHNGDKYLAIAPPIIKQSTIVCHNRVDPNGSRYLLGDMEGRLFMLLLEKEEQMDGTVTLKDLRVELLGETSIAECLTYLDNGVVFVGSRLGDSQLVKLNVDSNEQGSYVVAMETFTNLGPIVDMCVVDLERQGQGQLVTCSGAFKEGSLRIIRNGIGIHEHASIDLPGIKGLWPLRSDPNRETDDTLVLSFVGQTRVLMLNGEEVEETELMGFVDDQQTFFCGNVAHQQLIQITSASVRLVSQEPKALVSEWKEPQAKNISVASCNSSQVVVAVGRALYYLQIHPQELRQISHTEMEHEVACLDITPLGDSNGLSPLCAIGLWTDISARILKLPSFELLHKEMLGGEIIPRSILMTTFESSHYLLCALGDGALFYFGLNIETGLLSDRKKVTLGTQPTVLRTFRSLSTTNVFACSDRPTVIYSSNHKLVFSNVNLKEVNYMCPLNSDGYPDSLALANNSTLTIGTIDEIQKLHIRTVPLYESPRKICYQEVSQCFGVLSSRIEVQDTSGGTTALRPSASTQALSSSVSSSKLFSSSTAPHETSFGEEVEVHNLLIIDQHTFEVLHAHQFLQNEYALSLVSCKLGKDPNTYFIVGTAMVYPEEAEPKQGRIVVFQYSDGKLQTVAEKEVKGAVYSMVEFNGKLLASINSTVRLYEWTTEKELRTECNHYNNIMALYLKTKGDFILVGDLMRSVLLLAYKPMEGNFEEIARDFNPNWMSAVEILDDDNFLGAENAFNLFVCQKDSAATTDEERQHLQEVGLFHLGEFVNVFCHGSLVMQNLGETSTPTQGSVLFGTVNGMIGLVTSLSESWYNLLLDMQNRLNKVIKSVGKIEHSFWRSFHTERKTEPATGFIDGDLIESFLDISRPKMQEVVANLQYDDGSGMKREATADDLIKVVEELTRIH
# Method: as §1, §2, §3, §4, §5, §6, §7
# IKZF3 = molecular target: T5, IKZF3 (Homo sapiens, UniProt Q96SW2+Q9UKT9); experiment: as above; type: cell-based; conditions: substrate protein remaining %, treated at 50 nM and 500 nM, 24 hours
# T5 construct: endogenous in cells; host or cells: hPBMC
# T5 sequence (Q9UKT9 whole entry): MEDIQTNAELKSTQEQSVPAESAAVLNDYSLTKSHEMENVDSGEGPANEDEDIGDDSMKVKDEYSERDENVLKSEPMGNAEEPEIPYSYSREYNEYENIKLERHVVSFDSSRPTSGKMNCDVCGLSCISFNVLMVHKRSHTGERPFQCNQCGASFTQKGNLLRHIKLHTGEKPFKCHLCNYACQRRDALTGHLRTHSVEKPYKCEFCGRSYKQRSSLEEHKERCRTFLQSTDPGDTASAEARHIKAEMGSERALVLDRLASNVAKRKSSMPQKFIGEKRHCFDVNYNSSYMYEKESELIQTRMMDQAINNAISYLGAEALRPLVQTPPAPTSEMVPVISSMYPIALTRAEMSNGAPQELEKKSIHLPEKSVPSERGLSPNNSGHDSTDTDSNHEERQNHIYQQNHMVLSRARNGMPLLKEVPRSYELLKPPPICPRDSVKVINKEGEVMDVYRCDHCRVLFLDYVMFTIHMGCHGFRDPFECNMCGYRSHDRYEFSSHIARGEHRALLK
# T5 sequence (Q96SW2 whole entry): as the sequence (Q96SW2 whole entry) above
# T5 sequence (Q16531 whole entry partner): as the sequence (Q16531 whole entry partner) above
# Method: as §1, §2, §3, §4, §5, §6, §7
# CK1α = molecular target: T6, CK1α (Homo sapiens, UniProt P48729+Q96SW2); experiment: as above; type: cell-based; conditions: substrate protein remaining %, treated at 50 nM and 500 nM, 24 hours
# T6 construct: endogenous in cells; host or cells: hPBMC
# T6 sequence (P48729 whole entry): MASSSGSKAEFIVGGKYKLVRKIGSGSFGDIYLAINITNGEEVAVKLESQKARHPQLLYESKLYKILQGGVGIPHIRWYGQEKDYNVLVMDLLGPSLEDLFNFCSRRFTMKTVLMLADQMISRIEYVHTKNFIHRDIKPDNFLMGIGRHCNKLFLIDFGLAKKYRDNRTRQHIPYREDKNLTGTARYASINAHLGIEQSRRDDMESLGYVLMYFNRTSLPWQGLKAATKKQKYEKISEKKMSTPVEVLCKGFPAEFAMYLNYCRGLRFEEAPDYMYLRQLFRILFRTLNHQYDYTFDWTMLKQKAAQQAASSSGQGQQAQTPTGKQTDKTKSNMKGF
# T6 sequence (Q96SW2 whole entry): as the sequence (Q96SW2 whole entry) above
# T6 sequence (Q16531 whole entry partner): as the sequence (Q16531 whole entry partner) above
# Method: as §1, §2, §3, §4, §5, §6, §7
# IKZF1 = molecular target: T7, IKZF1 (Homo sapiens, UniProt Q13422+Q96SW2); experiment: as above; type: cell-based; conditions: substrate protein remaining %, treated at 50 nM and 500 nM, 24 hours
# T7 construct: endogenous in cells; host or cells: hPBMC
# T7 sequence (Q13422 whole entry): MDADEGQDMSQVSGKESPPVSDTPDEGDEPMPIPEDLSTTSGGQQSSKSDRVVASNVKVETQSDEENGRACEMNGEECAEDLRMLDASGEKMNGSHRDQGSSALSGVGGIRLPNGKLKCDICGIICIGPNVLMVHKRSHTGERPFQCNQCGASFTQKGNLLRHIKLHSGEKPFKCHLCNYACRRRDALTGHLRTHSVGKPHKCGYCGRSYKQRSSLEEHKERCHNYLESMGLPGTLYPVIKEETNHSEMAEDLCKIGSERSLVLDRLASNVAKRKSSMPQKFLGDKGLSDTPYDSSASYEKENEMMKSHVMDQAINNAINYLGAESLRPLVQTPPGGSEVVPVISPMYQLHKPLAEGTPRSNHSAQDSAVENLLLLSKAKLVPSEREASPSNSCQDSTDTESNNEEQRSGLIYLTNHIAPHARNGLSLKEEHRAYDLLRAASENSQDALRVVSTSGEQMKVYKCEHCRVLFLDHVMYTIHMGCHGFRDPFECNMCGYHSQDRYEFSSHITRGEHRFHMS
# T7 sequence (Q96SW2 whole entry): as the sequence (Q96SW2 whole entry) above
# T7 sequence (Q16531 whole entry partner): as the sequence (Q16531 whole entry partner) above
# Method: as §1, §2, §3, §4, §5, §6, §7
# GSPT1 = molecular target: T8, GSPT1 (Homo sapiens, UniProt P15170+Q96SW2); experiment: as above; type: cell-based; conditions: substrate protein remaining %, treated at 50 nM and 500 nM, 24 hours
# T8 construct: endogenous in cells; host or cells: hPBMC
# T8 sequence (P15170 whole entry): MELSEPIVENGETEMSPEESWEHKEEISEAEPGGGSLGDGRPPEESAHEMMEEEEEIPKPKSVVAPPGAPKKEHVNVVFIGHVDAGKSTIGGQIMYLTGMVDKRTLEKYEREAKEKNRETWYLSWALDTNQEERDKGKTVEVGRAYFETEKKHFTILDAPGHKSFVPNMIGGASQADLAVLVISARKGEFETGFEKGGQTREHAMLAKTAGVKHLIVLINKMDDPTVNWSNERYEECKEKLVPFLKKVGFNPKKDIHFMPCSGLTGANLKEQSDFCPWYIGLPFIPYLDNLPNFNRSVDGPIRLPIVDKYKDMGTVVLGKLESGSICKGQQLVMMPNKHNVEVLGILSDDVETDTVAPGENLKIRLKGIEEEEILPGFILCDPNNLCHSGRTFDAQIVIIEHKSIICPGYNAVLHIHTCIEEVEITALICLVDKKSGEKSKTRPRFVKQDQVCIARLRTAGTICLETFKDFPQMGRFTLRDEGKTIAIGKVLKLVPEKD
# T8 sequence (Q96SW2 whole entry): as the sequence (Q96SW2 whole entry) above
# T8 sequence (Q16531 whole entry partner): as the sequence (Q16531 whole entry partner) above
# Method: as §1, §2, §3, §4, §5, §6, §7
# MV-4-11 = experiment: Tumor cell proliferation inhibition (CellTiter-Meiluncell Luminescent Cell Viability Assay); type: cell-based; conditions: Homo sapiens, 96 hours, Table I-9, CDK4/6 inhibitors
# Summary of the method: as §8
# [2] = 10 nM, Table I-16, compounds of Formula (II)
# [3] = Table I-16, compounds of Formula (II)
inhibition at 0.5 µM [1] [%],inhibition at 2 µM [1] [%],IC50 [1] [µM],Structure (SMILES),Degradation of substrate protein CDK6 (CDK6),Degradation of substrate protein CDK4 (CDK4),"inhibition at 0.01 µM (MM.1S; 10 nM, Table I-9, CDK4/6 inhibitors) [%]","inhibition at 0.5 µM (MM.1S; Table I-9, CDK4/6 inhibitors) [%]",Degradation of substrate protein WEE1 (WEE1),inhibition at 0.01 µM (MM.1S; [2]) [%],inhibition at 0.5 µM (MM.1S; [3]) [%],Degradation of substrate protein IKZF2 (IKZF2),Degradation of substrate protein IKZF3 (IKZF3),Degradation of substrate protein CK1α (CK1α),Degradation of substrate protein IKZF1 (IKZF1),Degradation of substrate protein GSPT1 (GSPT1),Inhibition Rate at 10 nM (%) (MM.1S; [2]),"inhibition at 0.01 µM (MV-4-11; MV4-11, 10 nM, read-out: Inhibition Rate at 10 nM (%)) [%]","inhibition at 0.5 µM (MV-4-11; MV4-11, 500 nM, read-out: Inhibition Rate at 500 nM (%)) [%]"
40 to 53,80 to 100,,"CN(C)C(=O)c1cc2cnc(Nc3ccc(N4CCN(Cc5ccc6c(c5)CN(C5CCC(=O)NC5=O)C6=S)CC4)cn3)nc2n1C1CCCC1 (stereo not drawn) [GT-08765, 7-cyclopentyl-2-((5-(4-((2-(2,6-dioxopiperidin-3-yl)-1-thioxoisoindolin-5-yl)methyl)piperazin-1-yl)pyridin-2-yl)amino)-N,N-dimethyl-7H-pyrrolo[2,3-d]pyrimidine-6-carboxamide]",A (0% ≤ substrate protein remaining % ≤ 80%),A (0% ≤ substrate protein remaining % ≤ 80%),30 to 40,40 to 50,,,,,,,,,,,
,,< 0.5,"O=C1CCC(N2Cc3c(CO)cccc3C2=S)C(=O)N1 (stereo not drawn) [GT-06981, 3-(4-(hydroxymethyl)-1-thioxoisoindolin-2-yl)piperidine-2,6-dione]",,,,,B (80%< substrate protein remaining %≤ 100%),20 to 30,35 to 40,B (80%< substrate protein remaining %≤ 100%),A (0% ≤ substrate protein remaining % ≤ 80%),B (80%< substrate protein remaining %≤ 100%),B (80%< substrate protein remaining %≤ 100%),B (80%< substrate protein remaining %≤ 100%),,,
,,< 0.5,"O=C1CCC(N2Cc3cc(CO)ccc3C2=S)C(=O)N1 (stereo not drawn) [GT-06977, 3-(5-(hydroxymethyl)-1-thioxoisoindolin-2-yl)piperidine-2,6-dione]",,,,,B (80%< substrate protein remaining %≤ 100%),,35 to 40,B (80%< substrate protein remaining %≤ 100%),A (0% ≤ substrate protein remaining % ≤ 80%),B (80%< substrate protein remaining %≤ 100%),B (80%< substrate protein remaining %≤ 100%),B (80%< substrate protein remaining %≤ 100%),ln6,,
,,< 0.5,"O=C1CCC(N2Cc3ccc(CO)cc3C2=S)C(=O)N1 (stereo not drawn) [GT-05566, 3-(6-(hydroxymethyl)-1-thioxoisoindolin-2-yl)piperidine-2,6-dione]",,,,,A (0% ≤ substrate protein remaining % ≤ 80%),20 to 30,,A (0% ≤ substrate protein remaining % ≤ 80%),A (0% ≤ substrate protein remaining % ≤ 80%),B (80%< substrate protein remaining %≤ 100%),A (0% ≤ substrate protein remaining % ≤ 80%),A (0% ≤ substrate protein remaining % ≤ 80%),,,
,,< 0.5,"O=C1CCC(N2Cc3ccccc3C2=S)C(=O)N1 (stereo not drawn) [GT-05563, 3-(1-thioxoisoindolin-2-yl)piperidine-2,6-dione]",,,,,A (0% ≤ substrate protein remaining % ≤ 80%),,,A (0% ≤ substrate protein remaining % ≤ 80%),A (0% ≤ substrate protein remaining % ≤ 80%),B (80%< substrate protein remaining %≤ 100%),A (0% ≤ substrate protein remaining % ≤ 80%),A (0% ≤ substrate protein remaining % ≤ 80%),,,
,,,"CC(=O)c1c(C)c2cnc(Nc3ccc(N4CCN(Cc5cccc6c5CN(C5CCC(=O)NC5=O)C6=S)CC4)cn3)nc2n(C2CCCC2)c1=O (stereo not drawn) [GT-08772, 3-(4-((4-(6-((6-acetyl-8-cyclopentyl-5-methyl-7-oxo-7,8-dihydropyrido[2,3-d]pyrimidin-2-yl)amino)pyridin-3-yl)piperazin-1-yl)methyl)-1-thioxoisoindolin-2-yl)piperidine-2,6-dione]",A (0% ≤ substrate protein remaining % ≤ 80%),A (0% ≤ substrate protein remaining % ≤ 80%),,,,,,,,,,,,30 to 40,40 to 50
60 to 80,80 to 100,,"CN(C)C(=O)c1cc2cnc(Nc3ccc(N4CCN(Cc5cccc6c5CN(C5CCC(=O)NC5=O)C6=S)CC4)cn3)nc2n1C1CCCC1 (stereo not drawn) [GT-08771, 7-cyclopentyl-2-((5-(4-((2-(2,6-dioxopiperidin-3-yl)-1-thioxoisoindolin-4-yl)methyl)piperazin-1-yl)pyridin-2-yl)amino)-N,N-dimethyl-7H-pyrrolo[2,3-d]pyrimidine-6-carboxamide]",A (0% ≤ substrate protein remaining % ≤ 80%),A (0% ≤ substrate protein remaining % ≤ 80%),,,,,,,,,,,,,
53 to 60,80 to 100,,"CC(=O)c1c(C)c2cnc(Nc3ccc(N4CCN(Cc5ccc6c(c5)CN(C5CCC(=O)NC5=O)C6=S)CC4)cn3)nc2n(C2CCCC2)c1=O (stereo not drawn) [GT-08766, 3-(5-((4-(6-((6-acetyl-8-cyclopentyl-5-methyl-7-oxo-7,8-dihydropyrido[2,3-d]pyrimidin-2-yl)amino)pyridin-3-yl)piperazin-1-yl)methyl)-1-thioxoisoindolin-2-yl)piperidine-2,6-dione]",A (0% ≤ substrate protein remaining % ≤ 80%),A (0% ≤ substrate protein remaining % ≤ 80%),,,,,,,,,,,,,
